These results are taken from paper PMC5514153, “Targeting PTPRZ inhibits stem cell-like properties and tumorigenicity in glioblastoma cells” (Scientific Reports, 2017).

Format in all cases: biochemical
Test [1] concerns the target T1, hPTPRM (Homo sapiens, UniProt P28827).
T1 construct: Recombinant proteins corresponding to the entire intracellular regions (ICRs) of PTPRZ1, PTPRA, and PTPRM; made in house; host or cells: baculovirus-silkworm expression system
Briefly: In vitro PTPase assay (DiFMUP), PTPRM. The settings on record: 60-min preincubation. On the procedure:
(§1) Figure 4 NAZ2329, an allosteric inhibitor of R5 RPTP subfamily members. (A) Structure of NAZ2329. (B) Effect of preincubation of NAZ2329 on its inhibitory activity against PTPRZ. Recombinant human PTPRZ1 enzyme (the whole intracellular region) was premixed with NAZ2329 for the indicated times and followed by addition of a fluorogenic DiFMUP (non-specific PTP substrate, 6,8-difluoro-4-methylumbiliferyl phosphate) to measure PTP inhibitory activity. (C) Time dependence. The PTPRZ1 enzyme was added to the inhibitor–substrate mixture, and the inhibitory activity was determined at each time point relative to the vehicle control. (D) Reversibility of inhibition. […] The mixture was then 20-fold diluted, and recovered PTP activity was expressed as the relative activity compared with the vehicle-treated enzyme. […] PTPRZ1 enzymes were preincubated with NAZ2329 for 60 min, and the PTP activity was measured using DiFMUP. […]
(§2) Recombinant proteins corresponding to the entire intracellular regions (ICRs) of PTPRZ1, PTPRA, and PTPRM were expressed using a baculovirus-silkworm expression system, and purified as described. The ICRs of PTPRG, PTPRS, and PTPRB and the catalytic domains of PTPN1 and PTPN6 were expressed as glutathione-S-transferase (GST) fusion proteins from each pGEX plasmid in Escherichia coli strain BL21 (ref. [6]). […]

For test [2], the target named is T2, hPTPN6 (Homo sapiens, UniProt P29350).
T2 construct: the catalytic domains of PTPN1 and PTPN6 were expressed as glutathione-S-transferase (GST) fusion proteins; GST (N); made in house; host or cells: Escherichia coli BL21
T2 sequence (P29350 244-515 limits assumed): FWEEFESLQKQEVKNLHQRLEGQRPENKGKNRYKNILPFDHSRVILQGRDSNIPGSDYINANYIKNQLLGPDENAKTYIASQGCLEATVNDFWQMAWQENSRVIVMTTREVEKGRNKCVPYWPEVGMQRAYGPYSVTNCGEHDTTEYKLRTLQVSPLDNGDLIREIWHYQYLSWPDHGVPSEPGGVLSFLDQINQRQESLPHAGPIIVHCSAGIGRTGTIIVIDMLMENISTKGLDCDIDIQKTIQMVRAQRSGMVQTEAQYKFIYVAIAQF
Briefly: In vitro PTPase assay (DiFMUP), PTPN6. The following applies: 60-min preincubation. On the procedure: as §1, §2

In test [3] the target is T3, human PTPRZ1 (whole intracellular region, D1+D2) (Homo sapiens, UniProt P23471).
T3 construct: Recombinant proteins corresponding to the entire intracellular regions (ICRs) of PTPRZ1, PTPRA, and PTPRM; made in house; host or cells: baculovirus-silkworm expression system
Briefly: In vitro PTPase assay (DiFMUP), PTPRZ1 whole intracellular region. On the procedure: Figure 4 NAZ2329, an allosteric inhibitor of R5 RPTP subfamily members. (A) Structure of NAZ2329. (B) Effect of preincubation of NAZ2329 on its inhibitory activity against PTPRZ. Recombinant human PTPRZ1 enzyme (the whole intracellular region) was premixed with NAZ2329 for the indicated times and followed by addition of a fluorogenic DiFMUP (non-specific PTP substrate, 6,8-difluoro-4-methylumbiliferyl phosphate) to measure PTP inhibitory activity. (C) Time dependence. The PTPRZ1 enzyme was added to the inhibitor–substrate mixture, and the inhibitory activity was determined at each time point relative to the vehicle control. (D) Reversibility of inhibition. PTPRZ1 enzymes were preincubated with NAZ2329 at the indicated concentrations for 30 min. The mixture was then 20-fold diluted, and recovered PTP activity was expressed as the relative activity compared with the vehicle-treated enzyme. (E) Lineweaver-Burk plot analysis. PTPRZ1 enzymes were preincubated with NAZ2329 for 60 min, and the PTP activity was measured using DiFMUP. (F) Concentration-inhibition curves of NAZ2329 for representative PTP members, including human PTPRZ and PTPRG (another R5 RPTP subfamily member), human PTPRS (R2A subfamily), human PTPRM (R2B subfamily), mouse PTPRB (R3 subfamily), human PTPRA (R4 subfamily), human PTPN1 (non-transmembrane PTP, NT1 subfamily), and human PTPN6 (NT2 subfamily), were generated. Assays were performed using DiFMUP. IC50 values obtained are shown in the inset. Data represent the averages of two or three separate experiments. TEXT PRINTED IN THE PICTURE: (F) NAZ2329: IC50 (μM): hPTPRZ1 7.5; IC50 (μM): hPTPRG 4.8; IC50 (μM): hPTPRA 35.7; IC50 (μM): hPTPRM 56.7; IC50 (μM): hPTPRS 23.7; IC50 (μM): mPTPRB 35.4; IC50 (μM): hPTPN6 15.2; IC50 (μM): hPTPN1 14.5
Recombinant proteins corresponding to the entire intracellular regions (ICRs) of PTPRZ1, PTPRA, and PTPRM were expressed using a baculovirus-silkworm expression system, and purified as described. The ICRs of PTPRG, PTPRS, and PTPRB and the catalytic domains of PTPN1 and PTPN6 were expressed as glutathione-S-transferase (GST) fusion proteins from each pGEX plasmid in Escherichia coli strain BL21 (ref. [6]). GST fusion proteins were purified by glutathione affinity chromatography as described. Chondroitinase ABC (chABC) was purchased from Sigma-Aldrich (catalog #C3667). Anti-PTPRZ-S, rabbit polyclonal antibodies against the extracellular region of PTPRZ was described previously (ref. [44]). The following are the specificities and sources of the commercially available antibodies used in the present study: Anti-RPTPβ (a monoclonal antibody against the intracellular domain of PTPRZ1 receptors, #610179, BD Biosciences), anti-SOX2 (#ab97959, Abcam), anti-POU3F2 (#12137, Cell Signaling), anti-OLIG2 (#AB9610, Millipore), anti-SALL2 (#12679–1-AP, Proteintech Group), anti-GAPDH (#ab9482, Abcam) anti-phosphotyrosine (PY20; #ab16389, Abcam), and anti-pY118-paxillin (#2541, Cell Signaling), mouse anti-paxillin antibody (#610569, BD Bioscience), anti-MBP (#sc-13914, Santa Cruz Biotechnology), and anti-NG2 proteoglycan (#AB5320, Millipore). […]

T3 sequence (P23471 1663-2315 limits assumed): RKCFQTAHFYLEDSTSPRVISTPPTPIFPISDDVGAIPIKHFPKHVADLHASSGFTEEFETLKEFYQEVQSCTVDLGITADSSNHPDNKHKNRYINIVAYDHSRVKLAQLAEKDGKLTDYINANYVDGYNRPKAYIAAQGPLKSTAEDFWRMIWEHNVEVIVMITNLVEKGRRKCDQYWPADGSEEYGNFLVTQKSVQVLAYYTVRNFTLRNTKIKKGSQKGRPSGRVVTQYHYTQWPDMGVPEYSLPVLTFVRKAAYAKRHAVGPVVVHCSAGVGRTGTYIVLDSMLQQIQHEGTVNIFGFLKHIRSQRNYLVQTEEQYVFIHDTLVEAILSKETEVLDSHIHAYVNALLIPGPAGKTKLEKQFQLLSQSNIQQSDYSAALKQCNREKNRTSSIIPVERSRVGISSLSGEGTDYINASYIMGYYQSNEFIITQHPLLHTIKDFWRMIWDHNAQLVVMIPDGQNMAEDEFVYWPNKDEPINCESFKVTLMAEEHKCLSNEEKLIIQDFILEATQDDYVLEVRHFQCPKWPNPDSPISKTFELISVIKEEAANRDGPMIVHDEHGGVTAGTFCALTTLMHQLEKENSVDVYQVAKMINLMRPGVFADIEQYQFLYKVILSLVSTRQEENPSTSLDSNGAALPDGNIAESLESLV
T1 sequence (P28827 765-1452 limits assumed): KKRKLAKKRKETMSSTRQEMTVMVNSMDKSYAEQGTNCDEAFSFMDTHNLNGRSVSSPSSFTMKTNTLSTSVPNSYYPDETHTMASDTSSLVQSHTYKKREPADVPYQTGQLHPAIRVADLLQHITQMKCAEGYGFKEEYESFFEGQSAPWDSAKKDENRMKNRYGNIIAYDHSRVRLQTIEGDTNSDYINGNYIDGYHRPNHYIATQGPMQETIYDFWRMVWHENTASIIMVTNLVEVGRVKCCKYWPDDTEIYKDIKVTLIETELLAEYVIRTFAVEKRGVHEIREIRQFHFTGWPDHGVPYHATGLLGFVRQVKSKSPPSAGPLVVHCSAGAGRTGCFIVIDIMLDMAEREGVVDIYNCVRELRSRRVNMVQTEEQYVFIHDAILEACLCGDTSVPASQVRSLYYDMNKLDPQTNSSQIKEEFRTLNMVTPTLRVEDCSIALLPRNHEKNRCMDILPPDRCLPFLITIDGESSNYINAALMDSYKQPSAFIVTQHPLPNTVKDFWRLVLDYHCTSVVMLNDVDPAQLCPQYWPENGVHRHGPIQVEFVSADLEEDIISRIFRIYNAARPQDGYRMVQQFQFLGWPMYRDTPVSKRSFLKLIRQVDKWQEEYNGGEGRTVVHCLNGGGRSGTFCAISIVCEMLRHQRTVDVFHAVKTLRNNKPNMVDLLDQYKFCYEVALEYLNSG

As usually defined, the IC50 is the concentration that gives 50% inhibition. For `CCOc1ccc(C(F)(F)F)cc1CSc1ccsc1C(=O)NS(=O)(=O)c1ccccc1` [NAZ2329], the IC50 is 56.7 µM in test [1]; 15.2 µM in test [2]; 7.5 µM in test [3] (whole intracellular region, DiFMUP, 60-min preincubation, read-out: IC50 hPTPRZ1 (D1+D2)). Also, the “reversibility: enzymatic activity after 20-fold dilution of enzyme-compound mixture” value in test [3] (30 min preincubation, then 20-fold dilution) is recorded as “fully recovered to the control level”. Moreover, in test [3] (60 min preincubation, DiFMUP), the “type of inhibition (Lineweaver-Burk plot)” value is “noncompetitive-type inhibition”.
